Here are results for five compounds from patent US11000033B2, “Ketone or oxime compound, and herbicide” (NISSAN CHEMICAL CORPORATION, priority 2014, dated 2021).

Holding throughout (format): in vivo
In data set [1] the test system is transplanted rice plant. The experiment in a line: Test Example 1: effect on crop, application before weed generation in submerged conditions (symbol a). Particulars: application herbicide amount 320 g/ha. The method in brief: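 Rice at 2.5 leaf stage transplanted into submerged soil (4 cm depth) sown with three weed species; herbicide applied before weed emergence.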

Data set [2] deals with Echinochloa oryzacola Vasing. Briefly: Test Example 2: herbicidal activity, application during weed generation in submerged conditions (symbol A). The following applies: Table 23; application herbicide amount 320 g/ha; grade 0-5 by criteria of Test Example 1. In a few lines: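 Alluvial soil in pots was flooded to a 4 cm water depth and sown with a mix of the three weed species, then grown in a greenhouse at 25° C. to 30° C. At the one- to two-leaf stage, an emulsifiable formulation diluted in water to a set dose was applied to the water surface. Effects were scored visually 3 weeks later.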

In data set [3] the test system is Leptochloa chinensis. Briefly: Test Example 3: herbicidal effect by foliage application, Wagner pot (symbol D). The following applies: application herbicide amount 320 g/ha. In a few lines:
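Weeds and rice were sown in alluvial soil under 0.1–0.5 cm of standing water and grown for 14 days in a 25–30 °C greenhouse. An emulsion of the compound, diluted in water to a set dose, was sprayed evenly onto the foliage. Effect was scored against fixed criteria 3 weeks after treatment.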

The test system of data set [4] is Digitaria ciliaris. The experiment in a line: Test Example 4: herbicidal effect by soil treatment (symbol F). The following applies: application herbicide amount 320 g/ha. In a few lines: (§1)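 Seeds were sown in sterilized diluvial soil, covered with about 1.5 cm of soil, and the soil surface was sprayed with a water-diluted emulsion of the compound at a predetermined rate. Plants grew in a greenhouse at 25° C. to 30° C.; effects were scored visually 3 weeks after application.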

Data set [5] concerns Echinochloa crus-galli var. crus-galli. Briefly: Test Example 4: herbicidal effect by soil treatment (symbol H). The following applies: application herbicide amount 320 g/ha. In a few lines:
as §1

Data set [6] concerns Avena fatua. The experiment in a line: Test Example 4: herbicidal effect by soil treatment (symbol I). Particulars: application herbicide amount 320 g/ha. The method in brief: as §1
Data set [7] deals with Lolium multiflorum Lam. Briefly: Test Example 4: herbicidal effect by soil treatment (symbol K). Particulars: application herbicide amount 320 g/ha. In a few lines:
as §1

The subject of data set [8] is Setaria viridis. Briefly: Test Example 5: herbicidal effect by foliage application, plastic box (symbol G). The following applies: 320 g/ha, 3 weeks after application. The method in brief: (§2)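 Greenhouse foliar test: seedlings at 14 days, grown 25° C. to 30° C. in sterilized diluvial soil; compound applied as an aqueous dilution of an emulsion; response read 3 weeks after spraying.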

Data set [9] has as its system Avena fatua. The experiment in a line: Test Example 5: herbicidal effect by foliage application, plastic box (symbol I). Particulars: 320 g/ha, 3 weeks after application. The method in brief: as §2
For data set [10], the system named is Chenopodium album. The experiment in a line: Test Example 5: herbicidal effect by foliage application, plastic box (symbol O). Particulars: 320 g/ha, 3 weeks after application. The method in brief: as §2
Data set [11] deals with Veronica persica. Briefly: Test Example 5: herbicidal effect by foliage application, plastic box (symbol R). Particulars: 320 g/ha, 3 weeks after application. The method in brief:
as §2

Data set [12] concerns corn. The experiment in a line: Test Example 5: effect on crop by foliage application, plastic box (symbol c). The following applies: 320 g/ha, 3 weeks after application. The method in brief: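 Seeds were sown in spots in sterilized diluvial soil held in a plastic box 21 cm × 13 cm × 7 cm deep, covered with about 1.5 cm of soil, and grown in a greenhouse at 25° C. to 30° C.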

Take `CON=C(C)CC1CC(OC(=O)C(C)(C)Oc2ccccc2)=C(c2c(C)cc(C)cc2C)C1=O` (stereo not drawn) [1-017]: the “Effect grade on crop, a: transplanted rice plant” value (from here on “Effect grade on crop”) in data set [1] is listed as 5 (Herbicidal ratio of 90% or more (almost completely withered)). The “Herbicidal effect grade, A: Echinochloa oryzacola Vasing.” value in [2] is 5 (Herbicidal ratio of 90% or more (almost completely withered)). Besides, the “herbicidal effect on D (Leptochloa chinensis), grade 0-5” value (shortened to “herbicidal effect on D”) in [3] was 5 (Herbicidal ratio of 90% or more (almost completely withered)). In addition, in data set [4], the “F (Digitaria ciliaris) herbicidal effect grade” value is recorded as 5 (Herbicidal ratio of 90% or more (almost completely withered)). Besides, the “H (Echinochloa crus-galli var. crus-galli) herbicidal effect grade” value in data set [5] is 5 (Herbicidal ratio of 90% or more (almost completely withered)). The “I (Avena fatua) herbicidal effect grade” value in data set [6] is 5 (Herbicidal ratio of 90% or more (almost completely withered)). Further, in data set [7], the “K (Lolium multiflorum Lam.) herbicidal effect grade” value is recorded as 5 (Herbicidal ratio of 90% or more (almost completely withered)). For the same compound, the “G: Setaria viridis, herbicidal effect grade” value (“G: Setaria viridis” for short) in [8] is reported as 5 (Herbicidal ratio of 90% or more (almost completely withered)). Besides, in [9], the “I: Avena fatua, herbicidal effect grade” value is on record as 5 (Herbicidal ratio of 90% or more (almost completely withered)). In addition, the “O: Chenopodium album, herbicidal effect grade” value (“O: Chenopodium album” for short) in data set [10] is 2 (Herbicidal ratio of 20% or higher and lower than 40%). The “R: Veronica persica, herbicidal effect grade” value (shortened to “R: Veronica persica”) in data set [11] was 3 (Herbicidal ratio of 40% or higher and lower than 70%). Moreover, the “c: corn, effect on crop grade” value in data set [12] is 4 (Herbicidal ratio of 70% or higher and lower than 90%).

With `CON=C(C)C(=O)C1CC(O)=C(c2c(C)cc(C)cc2C)C1=O` (stereo not drawn) [8-002], in data set [1], the “Effect grade on crop” value is 0 (Herbicidal ratio of 5% or lower (almost no effect)). In data set [2], the “Herbicidal effect grade, A: Echinochloa oryzacola Vasing.” value is 0 (Herbicidal ratio of 5% or lower (almost no effect)). The “D (Leptochloa chinensis) herbicidal effect grade” value in data set [3] (Table 24) was 0 (Herbicidal ratio of 5% or lower (almost no effect)). Also, in [4], the “Herbicidal effect grade, F: Digitaria ciliaris” value was 3 (Herbicidal ratio of 40% or higher and lower than 70%). Also, in data set [5], the “Herbicidal effect grade, H: Echinochloa crus-galli var. crus-galli” value is 2 (Herbicidal ratio of 20% or higher and lower than 40%). In [6], the “Herbicidal effect grade, I: Avena fatua” value was 0 (Herbicidal ratio of 5% or lower (almost no effect)). Also, the “Herbicidal effect grade, K: Lolium multiflorum Lam.” value in data set [7] was 0 (Herbicidal ratio of 5% or lower (almost no effect)). The “G: Setaria viridis” value in [8] was 0 (Herbicidal ratio of 5% or lower (almost no effect)). In addition, the “I: Avena fatua, herbicidal effect grade” value in [9] was 3 (Herbicidal ratio of 40% or higher and lower than 70%). The “O: Chenopodium album” value in data set [10] is reported as 0 (Herbicidal ratio of 5% or lower (almost no effect)). Moreover, the “R: Veronica persica” value in data set [11] is 0 (Herbicidal ratio of 5% or lower (almost no effect)). Further, the “c: corn, effect on crop grade” value in [12] is on record as 0 (Herbicidal ratio of 5% or lower (almost no effect)).

On to `CC(CC1CC(O)=C(c2c(C)cc(C)cc2C)C1=O)=NOCc1ccccn1` (stereo not drawn) [1-022], for which the “Effect grade on crop” value in data set [1] is reported as 5 (Herbicidal ratio of 90% or more (almost completely withered)). In data set [2], the “Herbicidal effect grade, A: Echinochloa oryzacola Vasing.” value was 4 (Herbicidal ratio of 70% or higher and lower than 90%). Also, in [3], the “herbicidal effect on D” value is given as 5 (Herbicidal ratio of 90% or more (almost completely withered)). Also, the “F (Digitaria ciliaris) herbicidal effect grade” value in data set [4] is given as 5 (Herbicidal ratio of 90% or more (almost completely withered)). Besides, in [5], the “H (Echinochloa crus-galli var. crus-galli) herbicidal effect grade” value was 5 (Herbicidal ratio of 90% or more (almost completely withered)). In data set [6], the “I (Avena fatua) herbicidal effect grade” value was 4 (Herbicidal ratio of 70% or higher and lower than 90%). Further, the “K (Lolium multiflorum Lam.) herbicidal effect grade” value in data set [7] was 5 (Herbicidal ratio of 90% or more (almost completely withered)). In data set [8], the “G: Setaria viridis” value is 5 (Herbicidal ratio of 90% or more (almost completely withered)). Also, in data set [9], the “I: Avena fatua, herbicidal effect grade” value is on record as 5 (Herbicidal ratio of 90% or more (almost completely withered)). The “O: Chenopodium album” value in data set [10] is 3 (Herbicidal ratio of 40% or higher and lower than 70%). The “R: Veronica persica” value in data set [11] was 3 (Herbicidal ratio of 40% or higher and lower than 70%). Moreover, the “c: corn, effect on crop grade” value in [12] is 3 (Herbicidal ratio of 40% or higher and lower than 70%).

As for `CON=C(C)CC1CC(OC(=O)C(C)(C)CCl)=C(c2c(C)cc(C)cc2C)C1=O` (stereo not drawn) [1-016], in [1], the “Effect grade on crop” value is 5 (Herbicidal ratio of 90% or more (almost completely withered)). Also, in data set [2], the “Herbicidal effect grade, A: Echinochloa oryzacola Vasing.” value is listed as 5 (Herbicidal ratio of 90% or more (almost completely withered)). For the same compound, the “herbicidal effect on D” value in data set [3] is 5 (Herbicidal ratio of 90% or more (almost completely withered)). Besides, in [4], the “F (Digitaria ciliaris) herbicidal effect grade” value is 5 (Herbicidal ratio of 90% or more (almost completely withered)). Further, the “H (Echinochloa crus-galli var. crus-galli) herbicidal effect grade” value in data set [5] was 5 (Herbicidal ratio of 90% or more (almost completely withered)). For the same compound, the “I (Avena fatua) herbicidal effect grade” value in data set [6] is on record as 5 (Herbicidal ratio of 90% or more (almost completely withered)). In addition, in data set [7], the “K (Lolium multiflorum Lam.) herbicidal effect grade” value is 5 (Herbicidal ratio of 90% or more (almost completely withered)). In addition, the “G: Setaria viridis” value in data set [8] is given as 5 (Herbicidal ratio of 90% or more (almost completely withered)). Besides, in data set [9], the “I: Avena fatua, herbicidal effect grade” value is 5 (Herbicidal ratio of 90% or more (almost completely withered)). In data set [10], the “O: Chenopodium album” value was 2 (Herbicidal ratio of 20% or higher and lower than 40%). In addition, the “R: Veronica persica” value in data set [11] was 4 (Herbicidal ratio of 70% or higher and lower than 90%). Also, the “c: corn, effect on crop grade” value in data set [12] is 4 (Herbicidal ratio of 70% or higher and lower than 90%).

Turning to `CON=C(C)CC1CC(OC(=O)C2CC2)=C(c2c(C)cc(C)cc2C)C1=O` (stereo not drawn) [1-015], the “Effect grade on crop” value in data set [1] is listed as 5 (Herbicidal ratio of 90% or more (almost completely withered)). In data set [2], the “Herbicidal effect grade, A: Echinochloa oryzacola Vasing.” value is 5 (Herbicidal ratio of 90% or more (almost completely withered)). Further, the “herbicidal effect on D” value in data set [3] is reported as 5 (Herbicidal ratio of 90% or more (almost completely withered)). Further, the “F (Digitaria ciliaris) herbicidal effect grade” value in [4] is on record as 5 (Herbicidal ratio of 90% or more (almost completely withered)). In addition, the “H (Echinochloa crus-galli var. crus-galli) herbicidal effect grade” value in data set [5] was 5 (Herbicidal ratio of 90% or more (almost completely withered)). Further, in [6], the “I (Avena fatua) herbicidal effect grade” value was 5 (Herbicidal ratio of 90% or more (almost completely withered)). Also, in data set [7], the “K (Lolium multiflorum Lam.) herbicidal effect grade” value is 5 (Herbicidal ratio of 90% or more (almost completely withered)). Moreover, the “G: Setaria viridis” value in data set [8] was 5 (Herbicidal ratio of 90% or more (almost completely withered)). For the same compound, the “I: Avena fatua, herbicidal effect grade” value in [9] is 5 (Herbicidal ratio of 90% or more (almost completely withered)). In addition, the “O: Chenopodium album” value in data set [10] was 3 (Herbicidal ratio of 40% or higher and lower than 70%). For the same compound, in data set [11], the “R: Veronica persica” value was 4 (Herbicidal ratio of 70% or higher and lower than 90%). For the same compound, in [12], the “c: corn, effect on crop grade” value was 5 (Herbicidal ratio of 90% or more (almost completely withered)).
